Measurements as given in patent US9163011B2, “Oxazine derivatives and their use in the treatment of disease” (NOVARTIS AG, priority 2011, dated 2015).

System: Soluble Abeta40 levels in the rat brain and CSF
Test: Test 5: In Vivo Inhibitory Activity (Abeta lowering in rat brain and CSF)
Details: male Sprague-Dawley rats, oral gavage, 10 micromoles per kilogram, 4 hours prior to sacrifice; n.s.=not statistically significant
Method: Test 5: In Vivo Inhibitory Activity of Example Compounds
Male Sprague-Dawley rats, 220-280 g weight, (Charles River, France) were dosed by oral gavage with vehicle alone (0.1% Tween80, 0.5% methylcellulose in water) or with compound suspended in vehicle at a dose of 10 micromoles compound per kilogram body weight, 4 hours prior to sacrifice. The 4 hour timepoint was selected in order to compare the activity of compounds that have sufficient pharmacokinetic and biodistribution properties to reduce total brain Abeta within approximately three half-lives of the rat brain Abeta40 peptide.
Immediately prior to sacrifice, anaesthetized rat (spontaneous inhalation, 2-5% Isoflurane and air) were fixed in a stereotaxic apparatus on a raised platform, with anesthesia maintained though a nose cone. The angle of the head was tilted downward, perpendicular to the body, and a hypodermic needle lowered through the skin behind the occipital ridge, into the Cisterna magna. Cerebrospinal fluid (CSF) was withdrawn (˜50-100 μL), dispensed into tubes (protein Lo-bind Eppendorf tubes for Abeta40 analysis, normal Eppendorph tubes for compound analysis), frozen on dry ice and stored at −80° C. until analysis. Rats were then immediately decapitated under anesthesia, trunk blood collected for analysis of compound levels and the brain retrieved. One half-forebrain was dissected by removing the cerebellum and olfactory bulbs, frozen in three pieces on a metal plate pre-cooled on frozen CO2 and stored in tubes at −80° C. until analysis for Abeta40. For the other half-brain, olfactory bulbs were discarded and a sagittal slice taken from the medial aspect, weighing ˜200-400 mg, placed in glass HPLC tubes and frozen on dry ice until analysis for compound levels.
Soluble Abeta40 levels in the rat brain and CSF were quantified using a Meso Scale Discovery (MSD) 96-well MULTI-ARRAY human/rodent (4G8) Abeta40 Ultrasensitive Assay (#K110FTE-3, Meso Scale Discovery, Gaithersburg, USA). Forebrain sample homogenates were prepared by sonication in 9 volumes (w/v) of ice cold TBA. Fifty μL of 2% TX-100 in TBS-complete was added to 50 μL aliquots of the homogenate to reach a final concentration of 1% TX-100 in a 1:20 dilution. Samples were incubated on ice for 15 min interrupted with 3 short vortexing steps, then centrifuged (100 000×g, 4° C., 15 min), and 50 μL of supernatant collected. This was further diluted 1:5 with 3% Blocker A solution from the MSD kit to a final dilution of 1:100 and applied to the MSD plate. CSF samples containing blood were excluded. All other CSF samples were diluted with 1% Blocker A solution (from manufacturers kit) to reach a 1:20 CSF dilution. Calibration curves were prepared in 1% Blocker A solution spiked with synthetic Abeta1-40 peptide. Samples and calibration standards were applied in duplicate at a volume of 25 μL per well. Abeta40 concentrations of samples were estimated from the standard curve using SOFTmax PRO4.0.

## CC1(C)OC(N)=N[C@](C)(c2nc(NC(=O)c3ncc(C#N)cc3Cl)ccc2F)C1(F)F [Example 3, 3-Chloro-5-cyano-pyridine-2-carboxylic acid [6-((R)-2-amino-5,5-difluoro-4,6,6-trimethyl-5,6-dihydro-4H-[1,3]oxazin-4-yl)-5-fluoro-pyridin-2-yl]-amide]
  Abeta lowering in rat CSF: −35.3%
  Abeta lowering in rat forebrain: −20.0%

## C[C@]1(c2nc(NC(=O)c3ncc(C(F)(F)F)cc3Cl)ccc2F)N=C(N)OCC1(F)F [Example 7, 3-Chloro-5-trifluoromethyl-pyridine-2-carboxylic acid [6-((R)-2-amino-5,5-difluoro-4-methyl-5,6-dihydro-4H-[1,3]oxazin-4-yl)-5-fluoro-pyridin-2-yl]-amide]
  Abeta lowering in rat CSF: −67.9%
  Abeta lowering in rat forebrain: −63.6%

## CC1(c2cc(NC(=O)c3nn(C(F)F)cc3Cl)ccc2F)N=C(N)OCC1(F)F (stereo not shown) [71 WO 2011/069934 A1, reference compound]
  Abeta lowering in rat CSF: −30.4%
  Abeta lowering in rat forebrain: 5.6% (n.s.)

## CC1(c2cc(NC(=O)c3ncc(C#N)cc3Cl)ccc2F)N=C(N)OCC1(F)F (stereo not shown) [39 WO 2011/069934 A1, reference compound]
  Abeta lowering in rat CSF: −8.2% (n.s.)
  Abeta lowering in rat forebrain: −1.4% (n.s.)

## CC1(C)OC(N)=NC(C)(c2cc(NC(=O)c3ncc(C#N)cc3Cl)ccc2F)C1(F)F (stereo not shown) [22 WO 2011/069934 A1, reference compound]
  Abeta lowering in rat CSF: −17.9%
  Abeta lowering in rat forebrain: −7.8% (n.s.)
